Results: US20250352520A1, “USE OF DEXPRAMIPEXOLE FOR THE TREATMENT OF EOSINOPHILIC COPD” (Areteia Therapeutics, Inc., priority 2024, published 2025)

Conditions: Week 8; <50% AEC reduction at Week 16

With `CCCN[C@@H]1CCc2nc(N)sc2C1` [Dexpramipexole, (6R)-2-amino-4,5,6,7-tetrahydro-6-(propylamino)benzothiazole] the “Pre-BD FEF25-75 % change from baseline, Max” value was 58%, the “Pre-BD FEF25-75 % change from baseline, Mean ± SD” value was 30.4 ± 31.72% and the “Pre-BD FEF25-75 % change from baseline, Median” value was 38.4%. For the same compound, the “Pre-BD FEF25-75 % change from baseline, Min” value was −14%, the “Pre-BD FEF25-75 % change from baseline, Q1” value was 8% and the “Pre-BD FEF25-75 % change from baseline, Q3” value was 53%. For the same compound, the “Pre-BD FEF25-75 Observed, Max” value was 2050 mL/s, the “Pre-BD FEF25-75 Observed, Mean ± SD” value was 875.0 ± 790.55 mL/s and the “Pre-BD FEF25-75 Observed, Median” value was 535.0 mL/s. For the same compound, the “Pre-BD FEF25-75 Observed, Min” value was 380 mL/s, the “Pre-BD FEF25-75 Observed, Q1” value was 410 mL/s and the “Pre-BD FEF25-75 Observed, Q3” value was 1340 mL/s. The “Pre-BD FEF25-75 change from baseline, Max” value was 660 mL/s, the “Pre-BD FEF25-75 change from baseline, Mean ± SD” value was 200.0 ± 324.14 mL/s and the “Pre-BD FEF25-75 change from baseline, Median” value was 120.0 mL/s. The “Pre-BD FEF25-75 change from baseline, Min” value was -100 mL/s, the “Pre-BD FEF25-75 change from baseline, Q1” value was 0 mL/s and the “Pre-BD FEF25-75 change from baseline, Q3” value was 400 mL/s. The “Pre-BD FEV1 % change from baseline, Max” value was 41%, the “Pre-BD FEV1 % change from baseline, Mean ± SD” value was 16.0 ± 19.59% and the “Pre-BD FEV1 % change from baseline, Median” value was 13.2%. The “Pre-BD FEV1 % change from baseline, Min” value was −4%, the “Pre-BD FEV1 % change from baseline, Q1” value was 1% and the “Pre-BD FEV1 % change from baseline, Q3” value was 31%. For the same compound, the “Pre-BD FEV1 Observed, Max” value was 2940 mL, the “Pre-BD FEV1 Observed, Mean ± SD” value was 1755.0 ± 860.79 mL and the “Pre-BD FEV1 Observed, Median” value was 1600.0 mL. For the same compound, the “Pre-BD FEV1 Observed, Min” value was 880 mL, the “Pre-BD FEV1 Observed, Q1” value was 1215 mL and the “Pre-BD FEV1 Observed, Q3” value was 2295 mL. The “Pre-BD FEV1 change from baseline, Max” value was 860 mL, the “Pre-BD FEV1 change from baseline, Mean ± SD” value was 282.5 ± 410.23 mL and the “Pre-BD FEV1 change from baseline, Median” value was 165.0 mL. The “Pre-BD FEV1 change from baseline, Min” value was -60 mL, the “Pre-BD FEV1 change from baseline, Q1” value was -5 mL and the “Pre-BD FEV1 change from baseline, Q3” value was 570 mL. The “Pre-BD FVC % change from baseline, Max” value was 17%, the “Pre-BD FVC % change from baseline, Mean ± SD” value was 4.5 ± 11.70% and the “Pre-BD FVC % change from baseline, Median” value was 5.1%. The “Pre-BD FVC % change from baseline, Min” value was −9%, the “Pre-BD FVC % change from baseline, Q1” value was −5% and the “Pre-BD FVC % change from baseline, Q3” value was 14%. For the same compound, the “Pre-BD FVC Observed, Max” value was 3990 mL, the “Pre-BD FVC Observed, Mean ± SD” value was 3162.5 ± 792.10 mL and the “Pre-BD FVC Observed, Median” value was 3175.0 mL. For the same compound, the “Pre-BD FVC Observed, Min” value was 2310 mL, the “Pre-BD FVC Observed, Q1” value was 2500 mL and the “Pre-BD FVC Observed, Q3” value was 3825 mL. The “Pre-BD FVC change from baseline, Max” value was 540 mL, the “Pre-BD FVC change from baseline, Mean ± SD” value was 167.5 ± 353.02 mL and the “Pre-BD FVC change from baseline, Median” value was 185.0 mL. For the same compound, the “Pre-BD FVC change from baseline, Min” value was -240 mL, the “Pre-BD FVC change from baseline, Q1” value was -120 mL and the “Pre-BD FVC change from baseline, Q3” value was 455 mL. The “Pre-BD Peak Flow % change from baseline, Max” value was 500%, the “Pre-BD Peak Flow % change from baseline, Mean ± SD” value was 136.0 ± 243.51% and the “Pre-BD Peak Flow % change from baseline, Median” value was 28.5%. The “Pre-BD Peak Flow % change from baseline, Min” value was −13%, the “Pre-BD Peak Flow % change from baseline, Q1” value was 4% and the “Pre-BD Peak Flow % change from baseline, Q3” value was 268%. For the same compound, the “Pre-BD Peak Flow Observed, Max” value was 319 L/min, the “Pre-BD Peak Flow Observed, Mean ± SD” value was 227.0 ± 70.68 L/min and the “Pre-BD Peak Flow Observed, Median” value was 217.5 L/min. For the same compound, the “Pre-BD Peak Flow Observed, Min” value was 154 L/min, the “Pre-BD Peak Flow Observed, Q1” value was 175 L/min and the “Pre-BD Peak Flow Observed, Q3” value was 280 L/min. The “Pre-BD Peak Flow change from baseline, Max” value was 200 L/min, the “Pre-BD Peak Flow change from baseline, Mean ± SD” value was 70.5 ± 97.89 L/min and the “Pre-BD Peak Flow change from baseline, Median” value was 55.5 L/min. For the same compound, the “Pre-BD Peak Flow change from baseline, Min” value was -29 L/min, the “Pre-BD Peak Flow change from baseline, Q1” value was -1 L/min and the “Pre-BD Peak Flow change from baseline, Q3” value was 142 L/min.
